Read-outs that look alike come from different tables or passages of the source. One block for each molecule: values may come before it.
Key:
SKOV-3 cells [1] = assay: Chemotherapeutic sensitivity assay in SKOV-3 cells with and without rifampicin
PXR [2] = target: T1, PXR (Homo sapiens, UniProt O75469); assay: cell-based; set-up: expressed in transfected cells; host or cells: HepG2
T1 sequence (O75469 1-434): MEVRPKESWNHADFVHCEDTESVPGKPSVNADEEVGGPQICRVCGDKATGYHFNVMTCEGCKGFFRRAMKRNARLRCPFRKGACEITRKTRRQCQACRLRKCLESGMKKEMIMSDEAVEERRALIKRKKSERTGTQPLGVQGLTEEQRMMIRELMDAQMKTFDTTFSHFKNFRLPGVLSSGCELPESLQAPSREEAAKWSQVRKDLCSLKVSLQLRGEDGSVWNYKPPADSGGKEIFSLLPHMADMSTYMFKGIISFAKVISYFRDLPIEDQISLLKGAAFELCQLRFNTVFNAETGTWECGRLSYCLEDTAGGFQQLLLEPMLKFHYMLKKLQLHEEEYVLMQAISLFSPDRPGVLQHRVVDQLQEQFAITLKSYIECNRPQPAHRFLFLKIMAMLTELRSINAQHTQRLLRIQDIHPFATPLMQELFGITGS

[3] = tested on: Caco-2, LS174T, SKOV3 and CRL cell lines; assay: Drug induced cytotoxicity by MTT assay in cancer and fibroblast cell lines
PXR [4] = target: T1, PXR; assay: PXR transactivation assay (activation mode), HepG2 cells transfected with human PXR-pcDNA3 and CYP3A-Luc; assay type: cell-based; set-up: expressed in transfected cells; host or cells: HepG2
HepG2 cells = conditions: for HepG2 cell proliferation (in words): 48 hours
[5] = tested on: PXR target genes in SKOV-3 cells; assay: Quantitative RT-PCR of PXR target genes in SKOV-3 cells; assay type: cell-based; conditions: 0-1.0 μM
SKOV-3 cells [6] = conditions: MTT; 48-96 hr exposure (T1317: 48 hours, normalized to GSK1385)
LXR = conditions: known potency; cited from earlier work
SKOV-3 xenografts = assay: In vivo SKOV-3 xenograft studies in NOD.SCID mice
Description: HepG2 cells were processed into slides using histogel (Richard-Allan Scientific, Kalamazoo, Mich.). The slides were placed in a 59° C. oven in the morning of the experiments. For cells and tissue specimens, after de-waxing and re-hydrating the slides, slides were placed in a sodium citrate solution, pH 6.0 (Vector labs, Burlingame, Calif.) for 20 minutes. […] Cell sections were then immunostained with the biotin-streptavidin system from Vector Labs per manufacturer's instructions. Institutional IRB approval (#2007-902) was obtained for use of tissue sections from patients with serous papillary ovarian carcinoma and benign ovaries.
2×10^6 SKOV-3 cells were implanted by subcutaneous route into both flanks of NOD.SCID mice. On day 35 after inoculation, the mean (±SD) (n=32) volume of implanted tumor was 8 mm^3 (±3.5) (range: 4.3-18.3). […] Control intravenous injections consisted of 30% polyethylene glycol. The tumor volume was calculated twice a week using the following formula: Length (mm)×[Width (mm)]^2×π/6 (25).

PXR [7] = target: T1, PXR; conditions: known potency; cited from earlier work
LS174T cells = assay: LS174T cell growth (trypan blue counting, doubling time); conditions: within 72 hours
CYP3A4 = CYP3A4 (Homo sapiens, UniProt P08684); assay: Time-dependent CYP3A4 inhibition assay in human liver microsome (midazolam 1-hydroxylase); conditions: for Maximum % Inhibition, midazolam-1-hydroxylase activity / IC50: human liver microsome; for IC50: read-out: IC50, midazolam-1-hydroxylase activity
Chain of CYP3A4 (P08684 whole entry): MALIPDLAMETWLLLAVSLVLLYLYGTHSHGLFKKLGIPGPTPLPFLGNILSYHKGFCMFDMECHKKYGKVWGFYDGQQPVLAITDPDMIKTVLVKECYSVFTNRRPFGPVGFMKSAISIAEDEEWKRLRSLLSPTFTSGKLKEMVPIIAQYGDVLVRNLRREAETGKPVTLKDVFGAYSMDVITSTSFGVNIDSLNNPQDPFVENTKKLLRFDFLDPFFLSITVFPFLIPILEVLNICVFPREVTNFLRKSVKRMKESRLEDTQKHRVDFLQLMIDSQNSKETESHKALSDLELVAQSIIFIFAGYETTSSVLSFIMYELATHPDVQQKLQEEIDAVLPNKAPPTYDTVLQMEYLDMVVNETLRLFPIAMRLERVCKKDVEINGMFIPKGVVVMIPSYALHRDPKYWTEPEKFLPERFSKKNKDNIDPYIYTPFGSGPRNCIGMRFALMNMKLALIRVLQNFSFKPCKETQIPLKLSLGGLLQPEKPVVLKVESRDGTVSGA
Description: Briefly, test articles were incubated in a reaction mixture containing 5 μM midazolam, 0.1 mg/ml human liver microsomes and 1 mM NADPH for 5 min. The enzyme reaction was stopped by adding an equal volume of quench solution (H2O:acetonitrileformic-acid=94:5:1) containing ^13C-1-hydroxymdiazolam (0.1 μM final) as the internal standard. In order to test time-dependency of CYP3A4 inhibition, an identical reaction was started without midazolam and the reaction mixture was incubated for 30 min. After the pre-incubation, 5 μM midazolam was added and incubated for 5 min before the quench solution was added. The samples were centrifuged at 1,500 RPM for 15 min to precipitate denatured microsomal proteins. […] A percent CYP3A4 inhibition (% Inh) was calculated by the following equation:
[formula] CDMSO and Ccompound are concentrations of 1-hydroxymidazolam in the vehicle control and a compound tested, respectively. A plot of concentration-% Inh was then created and from the plot, IC50 and Maximum % Inhibition were reported.

[8] = non-linear regression, activation by 10 μM rifampicin, read-out: PXR Inhibition IC50

IC50 (SKOV-3 cells [1]; Homo sapiens, SK-OV-3, read-out: IC50 with rifampicin (R)): ~40 µM
IC50 (SKOV-3 cells [1]; Homo sapiens, SK-OV-3, read-out: IC50 without rifampicin (no R)): ~4 µM
Molecule: CC(=O)O[C@H]1C(=O)[C@@]2(C)[C@H]([C@H](OC(=O)c3ccccc3)[C@]3(O)C[C@H](OC(=O)[C@H](O)[C@@H](NC(=O)c4ccccc4)c4ccccc4)C(C)=C1C3(C)C)[C@]1(OC(C)=O)CO[C@@H]1C[C@@H]2O [paclitaxel]
resistance index induced by rifampicin (SKOV-3 cells [1]; IC50 with rifampicin / IC50 without rifampicin): ~10 fold

Molecule: CC(=O)N1CCN(c2ccc(OCC3COC(Cn4ccnc4)(c4ccc(Cl)cc4Cl)O3)cc2)CC1 (centres unmarked) [Ketoconazole, ketoconazole]
IC50 (PXR [2]): 18.7 µM
inhibition of rifampicin-mediated PXR activation (in words) (PXR [2]): inhibitor of activated PXR
viability ([3]; across all cell lines tested, effective concentration range for PXR inhibition (two times the IC50 ~30 μM), 48 hours): 65-75%
EC50 (PXR [4]): > 50 µM
PXR activation (in words) (PXR [4]; PXR transactivation assay): weak activator of PXR
HepG2 cell proliferation (in words) (HepG2 cells; combination of ketoconazole and rifampicin): cell proliferation is clearly decreased
non-viable cells (HepG2 cells; HepG2, 48 hours, 50 μM): > 35%

Molecule: CCc1c2c(nc3ccc(O)cc13)-c1cc3c(c(=O)n1C2)COC(=O)[C@]3(O)CC [SN-38]
resistance index induced by rifampicin (SKOV-3 cells [1]; IC50(R)/IC50 (no R)): ~17.5
IC50 (SKOV-3 cells [1]; read-out: IC50(R), SKOV-3 cells, with rifampicin): ~3.5 µM
IC50 (SKOV-3 cells [1]; read-out: IC50 (no R), SKOV-3 cells, without rifampicin): ~0.2 µM

PXR target gene induction (in words) [5]: same profile of gene expression
Molecule: O=S(=O)(c1ccccc1)N(CC(F)(F)F)c1ccc(C(O)(C(F)(F)F)C(F)(F)F)cc1 [T0901317]
SKOV-3 cell survival (in words) (SKOV-3 cells [6]): significant increase in cell survival

Molecule: C/C(=C\c1csc(C)n1)[C@@H]1C[C@@H]2O[C@]2(C)CCC[C@H](C)[C@H](O)[C@@H](C)C(=O)C(C)(C)[C@@H](O)CC(=O)N1 [ixabepilone]
% increased survival relative to ixabepilone without rifampicin (SKOV-3 cells [1]; SKOV-3, ixabepilone 0.1-50 μM in the presence of rifampicin, average): ~20%

Molecule: rifampicin
effect on cytotoxicity of ixabepilone, paclitaxel and SN-38 (in words) (SKOV-3 cells [1]; SKOV-3 cells, rifampicin 20 μM): significantly decreased the cytotoxicity
Ki67 stained cells, mean (SEM) (SKOV-3 xenografts; SKOV-3 xenografts, NOD.SCID mice, 40 mg/kg/day i.v., control 577.0 (21), p<0.00001): 937.0 (37)
tumor size at necropsy and tumor weight (in words) (SKOV-3 xenografts; day 60, versus control): significantly larger tumors
tumor volumes (in words) (SKOV-3 xenografts; days 45-60, versus controls): significantly higher
IC50 (PXR [2]; [8]): > 50 µM
EC50 (PXR [7]): 1 to 2 µM
growth rate constant (k=ln 2/g) (LS174T cells; PXR knockdown LS174T cells): ~0.008 hr^−1
growth rate constant (k=ln 2/g) (LS174T cells; vector-transfected LS174T cells): ~0.02 hr^−1
HepG2 cell proliferation (in words) (HepG2 cells; single agent): concentration dependent proliferation of cells

Molecule: CC(=O)N1CCN(c2ccc(OC[C@H]3CO[C@@](C)(c4ccc(Cl)cc4Cl)O3)cc2)CC1 [UCL2158H]
Maximum % Inhibition Observed (PXR [2]): 109%
inhibition of rifampicin-mediated PXR activation (in words) (PXR [2]; PXR transactivation assay): most potent inhibitors of PXR
IC50 (PXR [2]; [8]): 14.6 µM
PXR Inhibition Imax (PXR [2]; non-linear regression, maximal inhibition of PXR activation with 10 μM rifampicin): 128%
cytotoxicity (in words) ([3]; epithelial cells, concentration range up to 100 μM, MTT): less cytotoxic than ketoconazole
Maximum % Activation Observed (PXR [4]; PXR transactivation relative to 10 μM rifampicin, HepG2, 24 h, 50 μM-2.5 nM): 10%
EC50 (PXR [4]; non-linear regression analysis, read-out: PXR Activation EC50): > 50 µM
Maximum % Inhibition, midazolam-1-hydroxylase activity (CYP3A4; +preincubation (30 min)): 67%
time-dependency of CYP3A4 inhibition (CYP3A4; IC50 with vs without 30 min preincubation): no time-dependency
IC50 (CYP3A4; +preincubation (30 min)): 19.6 µM
IC50 (CYP3A4; −preincubation): 10.8 µM
Maximum % Inhibition, midazolam-1-hydroxylase activity (CYP3A4; −preincubation): 80%

From patent US8669260B2, “Ketoconazole-derivative antagonist of human pregnane X receptor and uses thereof” (priority 2008, dated 2014)
